ChEMBL document CHEMBL1201862, “PubChem BioAssay data set” (2004)
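Method: 48-hour compound exposure of cells in 96-well plates, five concentrations, linear interpolation of endpoints. Here, GI50 denotes the concentration required for 50% inhibition of growth.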 The source made the active and inactive calls. Rule as the data show it: active = GI50 up to about 1.1 µM and inactive = higher.

Tests used:
Assay in all cases: NCI anticancer screen, dose series, 48 h
SK-MEL-5 = system: SK-MEL-5
NCI-H226 = system: NCI-H226
UACC-257 = system: UACC-257
SF-268 = system: SF-268
HL-60 = system: HL-60
HOP-92 = system: HOP-92
ACHN = system: ACHN
SK-MEL-28 = system: SK-MEL-28
NCI-H23 = system: NCI-H23
OVCAR-4 = system: OVCAR-4
OVCAR-8 = system: OVCAR-8
MDA-MB-435 = system: MDA-MB-435
K562 = system: K562
RPMI-8226 = system: RPMI-8226
SF-539 = system: SF-539
M14 = system: M14
786-0 = system: 786-0
MDA-MB-231 = system: MDA-MB-231
SR = system: SR
KM12 = system: KM12

Compound	GI50 (SK-MEL-5)	GI50 (NCI-H226)	GI50 (UACC-257)	GI50 (SF-268)	GI50 (HL-60)	GI50 (HOP-92)	GI50 (ACHN)	GI50 (SK-MEL-28)	GI50 (NCI-H23)	GI50 (OVCAR-4)	GI50 (OVCAR-8)	GI50 (MDA-MB-435)	GI50 (K562)	GI50 (RPMI-8226)	GI50 (SF-539)	GI50 (M14)	GI50 (786-0)	GI50 (MDA-MB-231)	GI50 (SR)	GI50 (KM12)
COc1cc2c(c3c1c(=O)c1ccccc1n3C)C=CC1(CCCCC1)O2	2.15 µM (inactive)	8.07 µM (inactive)	> 7.73 µM (inactive)	4.48 µM (inactive)	3.88 µM (inactive)	3.24 µM (inactive)	3.13 µM (inactive)	4.8 µM (inactive)	> 7.67 µM (inactive)	4.65 µM (inactive)	4.81 µM (inactive)	2.38 µM (inactive)	1.56 µM (inactive)	0.455 µM (active)	1.57 µM (inactive)	2.68 µM (inactive)	1.04 µM (active)	4.83 µM (inactive)	1.95 µM (inactive)	0.603 µM (active)
CS(=O)(=O)OCCN(CCOS(C)(=O)=O)c1ccc(C=O)cc1	6.27 µM (inactive)	1.84 µM (inactive)	8.32 µM (inactive)	2.95 µM (inactive)	2.07 µM (inactive)	12.5 µM (inactive)	0.346 µM (active)	17.1 µM (inactive)	1.63 µM (inactive)	13 µM (inactive)	7.35 µM (inactive)	10.3 µM (inactive)	20.1 µM (inactive)	8.63 µM (inactive)	2.18 µM (inactive)	4.55 µM (inactive)	0.365 µM (active)	21.4 µM (inactive)	0.236 µM (active)	10.4 µM (inactive)
CCOC(=O)Cn1c(=O)c2cc(-c3ccccc3)cc3c(Cl)nc4c(OC)c(OC)cc1c4c32	24.7 µM (inactive)	> 39.6 µM (inactive)	18.6 µM (inactive)	9.93 µM (inactive)	4.89 µM (inactive)	10.7 µM (inactive)	19.9 µM (inactive)	21 µM (inactive)	15.3 µM (inactive)	21.6 µM (inactive)	15.6 µM (inactive)	17.4 µM (inactive)	13.8 µM (inactive)	4.91 µM (inactive)	87.5 µM (inactive)	15.6 µM (inactive)	14.8 µM (inactive)	17.6 µM (inactive)	1.99 µM (inactive)	31.6 µM (inactive)
CC(=O)Nc1cc2ccc(=O)oc2cc1Cl	> 100 µM (inactive)	> 100 µM (inactive)	> 100 µM (inactive)	> 100 µM (inactive)	> 100 µM (inactive)	> 100 µM (inactive)	> 100 µM (inactive)	> 100 µM (inactive)	> 100 µM (inactive)	> 100 µM (inactive)	> 100 µM (inactive)	> 100 µM (inactive)	> 100 µM (inactive)	> 100 µM (inactive)	> 100 µM (inactive)	> 100 µM (inactive)	> 100 µM (inactive)	> 100 µM (inactive)	> 100 µM (inactive)	> 100 µM (inactive)
C=C1CC[C@@H](CCC2CCC3(OC2)O[C@]2(O)CC[C@@]3(C)OC2(C)C)C(C)(C)[C@H]1C/C=C1\CCOC1=O (stereo not given in full)	0.0244 µM (active)	3.91 µM (inactive)	0.507 µM (active)	27.2 µM (inactive)	1.36 µM (inactive)	10.5 µM (inactive)	10.7 µM (inactive)	26.1 µM (inactive)	0.444 µM (active)	12.3 µM (inactive)	15.3 µM (inactive)	14.3 µM (inactive)	0.0798 µM (active)	1.9 µM (inactive)	5.3 µM (inactive)	17.7 µM (inactive)	11.8 µM (inactive)	23.6 µM (inactive)	2.67 µM (inactive)	16.2 µM (inactive)
COC1=CC2(CC(OC)=C1OC)OC21COc2ccccc2C1=O (stereo not given)	43 µM (inactive)	62.5 µM (inactive)	44.4 µM (inactive)	> 100 µM (inactive)	32.4 µM (inactive)	> 100 µM (inactive)	45.1 µM (inactive)	> 100 µM (inactive)	58.5 µM (inactive)	84.5 µM (inactive)	> 100 µM (inactive)	> 100 µM (inactive)	56.2 µM (inactive)	51.5 µM (inactive)	> 100 µM (inactive)	87.5 µM (inactive)	37.7 µM (inactive)	> 100 µM (inactive)	24.9 µM (inactive)	> 100 µM (inactive)
